Data on one compound can be found in patent US20220163532A1, “NUCLEAR-DERIVED EXOSOMES AND METHODS OF USE THEREOF” (Board of Regents, The University of Texas System, priority 2019, published 2022).

For assay [1], the system named is OVCAR-5 ovarian cancer model. The assay is described as follows: nExos in serum and ascites of OVCAR-5 tumor-bearing mice by imaging flow cytometry. It is filed as in vivo, mouse. Particulars: topotecan 7.5 mg/kg vs vehicle control. The source says:
Exosome staining for imaging flow cytometry and analysis. For quantitative analysis and imaging flow cytometry of exosomes, the method described by Erdbrugger et al. (2014) using an Amnis ImageStreamX MarkII analyzer was adapted. Briefly, 3×10^9 to 5×10^9 particles were isolated from either tissue culture cells, mouse serum and ascites, or serum obtained from patients with ovarian cancer and resuspended in PBS. Exosomes were placed in a sterile 1.5-ml Eppendorf tube and stained with CellMask Green Plasma Membrane (CMG) stain (1:250 dilution; C37608, Thermo Fisher Scientific) for 30 min at 37° C., protected from light. Exosomes were then washed to remove excess CMG by adding 2 ml of PBS and pelleted by ultracentrifugation at 40,000 rpm for 2 hours at 4° C. […]
To stain for dsDNA, CMG-stained exosomes were co-stained with DRAQ5 (62254, Thermo Fisher Scientific) at either 1:50 dilution for biofluid exosome samples or 1:250 dilution for cell culture samples and were lightly agitated at RT for 1 hour, protected from light. Samples were then placed on ice, and images of single exosomes were detected using the 60× objective of an Amnis ImageStreamX MarkII analyzer. […] Particle size was estimated using Invitrogen Flow Cytometry Submicron Particle Size Reference Beads (F13839, Thermo Fisher Scientific), allowing exclusion of particles <150 nm based on the signal detected from side scatter. […]

The test system of assay [2] is OVCAR-5 and OVCAR-8 cells. The assay is described as follows: DNA-positive exosomes (nExo) from drug-treated ovarian cancer cells by imaging flow cytometry. It is filed as cell-based, human. Particulars: topotecan 10 nM or olaparib 20 μM, parental cells treated 48 hours, vs DMSO. As for the experimental part:
Isolation of exosomes. The isolation method for exosomes that was used in this study followed the standard methods of the International Society of Extracellular Vesicles (Witwer et al., 2013). Cell lines described above were grown in the corresponding medium described above until 60 to 70% confluence was achieved. Cells were then washed twice with phosphate-buffered saline (PBS) and grown in corresponding medium containing 1% exosome-free FBS (EXO-FBS-250A-1, System Biosciences) plus 0.1% gentamicin for 48 hours. For exosome isolation, the harvested medium underwent serial centrifugation. First, the medium was spun down at 500g for 10 min to pellet any floating cells. Next, the supernatant was collected and spun down at 2000g for 30 min to pellet any residual cell debris. The resulting supernatant was then filtered through a 0.22-μm filter (SCGPUO5RE and SLGP033RS, Millipore-Sigma) to remove any remaining large vesicles. […] Exosome concentration and quantity were determined using NTA with a NanoSight NS300 instrument (Malvern Panalytical).
Exosome staining for imaging flow cytometry and analysis. For quantitative analysis and imaging flow cytometry of exosomes, the method described by Erdbrugger et al. (2014) using an Amnis ImageStreamX MarkII analyzer was adapted. […]

Turning to `CC[C@@]1(O)C(=O)OCc2c1cc1n(c2=O)Cc2cc3c(CN(C)C)c(O)ccc3nc2-1` [topotecan], the nExos in ascites result in assay [1] (ascites, P=0.028) is “significant increase”. Besides, in assay [1] (serum), the nExos in serum result is “no difference”. The “population of exosomes containing gDNA (proportion of nExo secreted)” value in assay [2] is “increased”.
